Assay results taken from article PMC7982320 (Pharmacology Research & Perspectives, 2021).
“Also recorded” adds a separate entry of the source. Where two headings read alike, the source gives them in different places.

Columns and labels:
human OAT1 = biological target: T1, human OAT1 (Homo sapiens, UniProt Q4U2R8); assay: Transporter inhibition, uptake assay; assay type: in vitro ADME
T1 sequence (Q4U2R8 1-563): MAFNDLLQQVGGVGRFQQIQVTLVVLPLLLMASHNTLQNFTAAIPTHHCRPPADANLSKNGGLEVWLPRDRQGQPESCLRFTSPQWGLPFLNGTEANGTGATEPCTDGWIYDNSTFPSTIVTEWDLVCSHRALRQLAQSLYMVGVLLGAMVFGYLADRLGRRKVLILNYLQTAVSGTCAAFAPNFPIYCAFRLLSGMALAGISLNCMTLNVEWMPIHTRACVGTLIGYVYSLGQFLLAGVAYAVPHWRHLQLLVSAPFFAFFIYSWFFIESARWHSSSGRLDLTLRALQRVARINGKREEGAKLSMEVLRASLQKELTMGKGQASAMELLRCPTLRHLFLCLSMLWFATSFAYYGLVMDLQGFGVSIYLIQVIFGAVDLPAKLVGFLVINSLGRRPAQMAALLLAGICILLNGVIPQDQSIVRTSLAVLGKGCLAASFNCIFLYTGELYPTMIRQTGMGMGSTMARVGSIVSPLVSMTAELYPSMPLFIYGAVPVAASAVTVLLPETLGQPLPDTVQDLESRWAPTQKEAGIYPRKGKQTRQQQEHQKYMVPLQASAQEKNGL

[1] = healthy male subjects, single oral dose of 60 mg 14C‐DFZ; cited from earlier work
human OCT2 = biological target: T2, human OCT2 (Homo sapiens, UniProt O15244); assay: Transporter inhibition, uptake assay; assay type: in vitro ADME
T2 sequence (O15244 1-555): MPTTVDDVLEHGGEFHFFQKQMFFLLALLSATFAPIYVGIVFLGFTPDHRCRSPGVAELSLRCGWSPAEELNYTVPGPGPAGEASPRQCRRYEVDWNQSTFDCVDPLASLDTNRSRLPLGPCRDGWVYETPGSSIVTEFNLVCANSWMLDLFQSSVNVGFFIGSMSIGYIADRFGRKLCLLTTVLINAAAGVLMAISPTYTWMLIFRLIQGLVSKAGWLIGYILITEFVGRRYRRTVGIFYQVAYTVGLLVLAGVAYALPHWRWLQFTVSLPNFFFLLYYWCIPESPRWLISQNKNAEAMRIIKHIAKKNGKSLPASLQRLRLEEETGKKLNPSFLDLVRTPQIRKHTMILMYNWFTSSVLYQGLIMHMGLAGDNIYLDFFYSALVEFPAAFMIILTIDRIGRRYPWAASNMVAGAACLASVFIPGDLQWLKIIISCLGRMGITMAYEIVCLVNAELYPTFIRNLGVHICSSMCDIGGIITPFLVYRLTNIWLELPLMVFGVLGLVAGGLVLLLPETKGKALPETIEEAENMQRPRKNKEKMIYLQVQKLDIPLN

human MDR1 = human MDR1 (Homo sapiens, UniProt P08183); assay: Transporter inhibition, vesicular transport assay; assay type: in vitro ADME
Chain of human MDR1 (P08183 whole entry): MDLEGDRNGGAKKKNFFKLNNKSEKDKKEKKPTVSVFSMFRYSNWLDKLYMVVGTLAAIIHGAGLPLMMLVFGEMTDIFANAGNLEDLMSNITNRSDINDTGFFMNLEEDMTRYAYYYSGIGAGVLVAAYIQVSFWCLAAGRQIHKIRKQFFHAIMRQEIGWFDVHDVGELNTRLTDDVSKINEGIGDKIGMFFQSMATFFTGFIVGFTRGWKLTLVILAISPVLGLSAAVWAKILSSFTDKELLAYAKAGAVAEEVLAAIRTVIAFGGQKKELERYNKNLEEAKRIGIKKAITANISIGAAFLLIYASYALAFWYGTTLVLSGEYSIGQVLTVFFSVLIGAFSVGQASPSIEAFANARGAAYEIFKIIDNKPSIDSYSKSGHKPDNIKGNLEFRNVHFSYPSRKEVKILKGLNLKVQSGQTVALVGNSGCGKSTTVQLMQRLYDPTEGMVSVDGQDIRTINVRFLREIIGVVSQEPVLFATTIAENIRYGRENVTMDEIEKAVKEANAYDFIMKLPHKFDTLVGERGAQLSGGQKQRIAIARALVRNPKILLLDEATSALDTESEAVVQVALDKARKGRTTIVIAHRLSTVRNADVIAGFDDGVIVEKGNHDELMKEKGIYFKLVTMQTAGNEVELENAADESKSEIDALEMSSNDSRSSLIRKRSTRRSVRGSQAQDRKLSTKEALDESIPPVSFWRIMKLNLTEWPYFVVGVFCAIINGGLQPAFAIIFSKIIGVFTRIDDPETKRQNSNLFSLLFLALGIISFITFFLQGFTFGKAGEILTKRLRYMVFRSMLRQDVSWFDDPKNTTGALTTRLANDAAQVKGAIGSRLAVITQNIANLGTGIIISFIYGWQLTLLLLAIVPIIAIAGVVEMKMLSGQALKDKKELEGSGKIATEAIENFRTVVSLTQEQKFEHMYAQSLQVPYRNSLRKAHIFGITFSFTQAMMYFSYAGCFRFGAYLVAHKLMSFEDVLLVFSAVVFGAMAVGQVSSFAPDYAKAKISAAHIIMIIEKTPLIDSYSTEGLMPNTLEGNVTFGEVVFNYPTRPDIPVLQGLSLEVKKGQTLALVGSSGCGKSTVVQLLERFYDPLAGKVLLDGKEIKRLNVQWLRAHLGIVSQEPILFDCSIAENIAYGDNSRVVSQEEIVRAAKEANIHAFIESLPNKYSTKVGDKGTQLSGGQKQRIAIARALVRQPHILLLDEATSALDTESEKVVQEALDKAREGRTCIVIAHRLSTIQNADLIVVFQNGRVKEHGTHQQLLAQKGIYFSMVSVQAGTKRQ

CYP3A4 = conditions: 48 h
CYP2C9 = CYP2C9 (Homo sapiens, UniProt P11712); assay: CYP inhibition in pooled human liver microsomes, diclofenac probe; assay type: in vitro ADME; conditions: read-out: IC50, No preincubation; CYP2C9, pooled HLMs, n = 3
Chain of CYP2C9 (P11712 whole entry, canonical isoform): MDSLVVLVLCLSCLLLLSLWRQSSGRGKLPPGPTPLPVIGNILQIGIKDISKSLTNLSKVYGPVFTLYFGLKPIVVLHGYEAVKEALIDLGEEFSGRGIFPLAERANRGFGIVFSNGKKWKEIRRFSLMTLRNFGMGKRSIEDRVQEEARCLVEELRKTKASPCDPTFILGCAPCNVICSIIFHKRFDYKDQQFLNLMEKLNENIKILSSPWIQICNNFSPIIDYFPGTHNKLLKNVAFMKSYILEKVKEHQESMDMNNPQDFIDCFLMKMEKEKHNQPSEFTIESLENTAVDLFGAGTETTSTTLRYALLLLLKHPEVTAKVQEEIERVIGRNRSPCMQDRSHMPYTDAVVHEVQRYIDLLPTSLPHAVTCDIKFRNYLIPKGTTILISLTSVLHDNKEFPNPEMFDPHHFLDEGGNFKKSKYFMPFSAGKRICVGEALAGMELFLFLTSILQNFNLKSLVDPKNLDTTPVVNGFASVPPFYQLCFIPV

[2] = test system: CYP isoforms (1A2, 2B6, 2C8, 2C9, 2C19, 2D6, 3A4); assay: Time‐dependent and mechanism‐based CYP inhibition; assay type: in vitro ADME, human; conditions: 30 min preincubation in absence and presence of NADPH
human MATE2‐K = human MATE2‐K (Homo sapiens, UniProt Q86VL8); assay: Transporter inhibition, uptake assay; assay type: in vitro ADME
Chain of human MATE2‐K (Q86VL8 1-566 isoform Q86VL8-3): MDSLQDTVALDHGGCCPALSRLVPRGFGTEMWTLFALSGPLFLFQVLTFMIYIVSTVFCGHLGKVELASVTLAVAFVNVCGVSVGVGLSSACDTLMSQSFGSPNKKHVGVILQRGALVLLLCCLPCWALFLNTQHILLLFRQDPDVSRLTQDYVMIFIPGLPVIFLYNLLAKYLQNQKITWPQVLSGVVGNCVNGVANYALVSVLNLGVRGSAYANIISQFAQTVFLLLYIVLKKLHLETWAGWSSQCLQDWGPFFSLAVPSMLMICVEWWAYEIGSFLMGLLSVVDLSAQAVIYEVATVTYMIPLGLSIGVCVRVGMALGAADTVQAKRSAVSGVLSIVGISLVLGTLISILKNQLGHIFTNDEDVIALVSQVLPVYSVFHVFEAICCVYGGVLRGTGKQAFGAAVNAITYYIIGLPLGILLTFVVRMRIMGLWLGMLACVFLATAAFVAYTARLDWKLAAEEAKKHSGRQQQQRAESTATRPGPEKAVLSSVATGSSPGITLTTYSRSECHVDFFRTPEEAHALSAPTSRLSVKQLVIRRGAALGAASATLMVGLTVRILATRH

## CC1=N[C@]2(C(=O)CO)[C@@H](C[C@H]3[C@@H]4C[C@@H](O)C5=CC(=O)C=C[C@]5(C)[C@H]4[C@@H](O)C[C@@]32C)O1 [6β‐OH‐21‐desDFZ, 6β‐Hydroxy‐21‐desacetyl deflazacort]
Human OAT1; OAT1, up to 50 µM
  inhibitory interaction with transporter: did not show interaction; also recorded: no inhibitory interaction
Human OAT1; OAT1 UPT, n = 3
  Maximum inhibition at 50 µM: <20 % of control
[1]
  share of 0–24 h plasma levels of total radioactivity: 25%
Human OCT2; OCT2, up to 50 µM
  inhibitory interaction with transporter: did not show interaction; also recorded: no inhibitory interaction
Human OCT2; OCT2 UPT, n = 3
  Maximum inhibition at 50 µM: <20 % of control
Human MDR1; MDR1, Cmax 0.34 µM, assumed 100% free
  estimated plasma Cmax/IC50 ratio: 0.017
Human MDR1; MDR1 VT, n = 3
  Maximum inhibition at 50 µM: 78 % of control
CYP3A4; donor one, 0.002 µM
  CYP3A4 enzyme activity fold induction: 0.600 fold
  CYP3A4 mRNA fold induction: 0.450 fold
CYP3A4; donor one, 0.01 µM
  CYP3A4 enzyme activity fold induction: 0.595 fold
  CYP3A4 mRNA fold induction: 0.583 fold
CYP3A4; donor one, 0.05 µM
  CYP3A4 enzyme activity fold induction: 0.604 fold
  CYP3A4 mRNA fold induction: 0.507 fold
CYP3A4; donor one, 0.25 µM
  CYP3A4 enzyme activity fold induction: 0.685 fold
  CYP3A4 mRNA fold induction: 0.681 fold
CYP3A4; donor one, 5 µM
  CYP3A4 enzyme activity fold induction: 0.451 fold
  CYP3A4 mRNA fold induction: 0.647 fold
CYP3A4; donor one, 10 µM
  CYP3A4 enzyme activity fold induction: 0.446 fold
  CYP3A4 mRNA fold induction: 0.890 fold
CYP3A4; donor one, 20 µM
  CYP3A4 enzyme activity fold induction: 0.561 fold
  CYP3A4 mRNA fold induction: 1.74 fold
CYP3A4; donor three, 0.002 µM
  CYP3A4 enzyme activity fold induction: 0.626 fold
  CYP3A4 mRNA fold induction: 0.562 fold
CYP3A4; donor three, 0.01 µM
  CYP3A4 enzyme activity fold induction: 0.543 fold
  CYP3A4 mRNA fold induction: 0.484 fold
CYP3A4; donor three, 0.05 µM
  CYP3A4 enzyme activity fold induction: 0.545 fold
  CYP3A4 mRNA fold induction: 0.450 fold
CYP3A4; donor three, 0.25 µM
  CYP3A4 enzyme activity fold induction: 0.668 fold
  CYP3A4 mRNA fold induction: 0.684 fold
CYP3A4; donor three, 5 µM
  CYP3A4 enzyme activity fold induction: 0.542 fold
  CYP3A4 mRNA fold induction: 0.615 fold
CYP3A4; donor three, 10 µM
  CYP3A4 enzyme activity fold induction: 0.563 fold
  CYP3A4 mRNA fold induction: 0.764 fold
CYP3A4; donor three, 20 µM
  CYP3A4 enzyme activity fold induction: 0.637 fold
  CYP3A4 mRNA fold induction: 1.33 fold
CYP3A4; donor two, 0.002 µM
  CYP3A4 enzyme activity fold induction: 0.601 fold
  CYP3A4 mRNA fold induction: 0.739 fold
CYP3A4; donor two, 0.01 µM
  CYP3A4 enzyme activity fold induction: 0.635 fold
  CYP3A4 mRNA fold induction: 0.714 fold
CYP3A4; donor two, 0.05 µM
  CYP3A4 enzyme activity fold induction: 0.657 fold
  CYP3A4 mRNA fold induction: 0.739 fold
CYP3A4; donor two, 0.25 µM
  CYP3A4 enzyme activity fold induction: 0.769 fold
  CYP3A4 mRNA fold induction: 0.817 fold
CYP3A4; donor two, 5 µM
  CYP3A4 enzyme activity fold induction: 0.690 fold
  CYP3A4 mRNA fold induction: 0.856 fold
CYP3A4; donor two, 10 µM
  CYP3A4 enzyme activity fold induction: 0.637 fold
  CYP3A4 mRNA fold induction: 1.02 fold
CYP3A4; donor two, 20 µM
  CYP3A4 enzyme activity fold induction: 0.856 fold
  CYP3A4 mRNA fold induction: 1.95 fold
CYP2C9
  IC50: > 50 µM
[2]
  time‐dependent or mechanism‐based inhibition (IC50 shift): neither time‐dependent nor metabolism‐based; also recorded: did not appear to be a time‐dependent or mechanism‐based inhibitor
Human MATE2‐K; MATE2‐K UPT, n = 3
  Maximum inhibition at 50 µM: 26 % of control
Human MATE2‐K; MATE2‐K, up to 50 µM
  inhibitory interaction with transporter: no inhibitory interaction
